# Laboratory results: patent US10420764B2, “Pharmaceutical formulation of N-[5-[2-(3,5-dimethoxyphenyl)ethyl]-2H-pyrazol-3-YL]-4-[(3R,5S)-3 ,5-dimethylpiperazin-1-YL] benzamide” (AstraZeneca AB, priority 2012, dated 2019)
# Like-named read-outs stand apart in the source and are kept apart here.
# Assay: Solubility of Formula (I) in simulated gastric and fasted simulated intestinal fluid
# Type: physicochemical
# Source text: Furthermore, we have observed that the compound of Formula (I) may form a viscous material at low pH, which has the effect of reducing the rate at which the drag dissolves. In order to achieve an acceptable rate and extent of dissolution across the physiological pH range, the earlier clinical formulation was manufactured using conditions designed to give a fine granule which, when compressed into tablet form would disperse rapidly upon administration. While this approach did result in an improvement in dissolution performance, ‘filming’ problems were experienced during manufacture. In addition, it was observed that the use of conventional lubricants such as magnesium stearate and sodium stearyl fumarate led to chemical degradation including impurity formation and/or complexation.
compound,measurement,setting,value
"COc1cc(CCc2cc(NC(=O)c3ccc(N4C[C@@H](C)N[C@@H](C)C4)cc3)n[nH]2)cc(OC)c1 [Formula (I), N-[5-[2-(3,5-dimethoxyphenyl)ethyl]-2H-pyrazol-3-yl]-4-[(3R,5S)-3,5-dimethylpiperazin-1-yl]benzamide]",solubility,"fasted simulated intestinal fluid, pH 6.5, fassif, read-out: solubility in fasted simulated intestinal fluid",~250 µg/mL
same,solubility,"simulated gastric fluid, pH 1.2, simulated gastric fluid, read-out: solubility in simulated gastric fluid",~5000 µg/mL
